Measurements published in patent US5061721A (G. D. Searle & Co., priority 1990, dated 1991).
pKd: −log10 of the molar value.

How the values were obtained:
[1] = tested on: Male Long-Evans rats; test: Passive avoidance assay; format: in vivo, rat; conditions: for Latency in Seconds in Passive Avoidance: saline 11.9; for Latency to enter box 24 hours after shock: n = 6
Text: Subjects: Male Long-Evans rats weighing about 200 g (Sasco) were used. They were housed two per cage with ad lib food and water for the duration of the experiment.
Apparatus: The apparatus consisted of a plexiglass box (32×26×20 cm) with a lid with a floor of metal rods spaced 1.8 cm apart. The box was divided into two chambers, one painted black and the other gray. Two doors (12 cm high) were cut into the front of the box allowing access into each chamber.
A Y-shaped plexiglas runway was attached to the front of the box. The stem of the Y was 16 cm long and unpainted. The arms of the Y (14 cm long each) led to the two doors and each was painted the color of the chamber to which it led. The stem of the Y extended over the edge of the table on which the apparatus was placed, so that it was approximately 75 cm above the floor. The metal floor of the box was wired to a Lafayette shock generator so that a 0.5 mAmp shock could be delivered.
Procedure: On the first rest day, each rat was placed on the runway and allowed to enter one of the chambers. The door to this chamber was then closed, and the rat was then allowed to enter the other chamber. […] Sixty minutes later, each rat was again allowed to enter one chamber, where it received a footshock for 2 seconds. […] On the third test day, the rat is again placed on the runway and allowed to enter a chamber. On days two and three, each rat's latency to enter a chamber, and which chamber it entered, are recorded.

[2] = tested on: Rats; test: Rewarded alternation of rats in a T-maze; format: in vivo, rat; conditions: 3 mg/kg i.p.
Text: Both groups learned the task in about 20 trials. Learning is defined as making 9 correct out of 10 consecutive choices. On the following day, the food reward was placed in the other arm of the maze (reversal).

[3] = target: T1, NMDA receptor-associated glycine recognition site (Glycine B receptor) (Rattus norvegicus, UniProt P35439); test: TCP modulation assay (stimulation of [3H]TCP binding); format: biochemical; conditions: in the presence of 0.6 μM glycine; basal binding 2583 ±381 DPM
T1 construct: synaptic plasma membranes (SPM) prepared from rat forebrain; tissue Sasco, St. Charles, Mo; (animals); host or cells: forebrain synaptic plasma membranes of 30-45 day old male Sprague-Dawley rats, Triton X-100 washed
Experimental: (§1) [^3 H]TCP binding was performed using Triton X-100 washed synaptic plasma membranes (SPM) prepared from rat forebrain (30-45 day old, male Sprague-Dawley; Sasco, St. Charles, Mo.) as described previously [J. W. Thomas, W. F. Hood, J. B. Monahan, P. C. Contreras and T. L. O'Donohue, Brain Res., 442, 396-398 (1988)]. […] The samples were then filtered though glass fiber filters (Schleicher and Schuell #32) which were pretreated with 0.05% (v/v) polyethylenimine. The filters were washed and the radioactivity quantitated by liquid scintillation spectrometry. […] The EC50 values for the stimulation of [^3 H]TCP binding were determined using a four parameter logistic regression analysis.

[4] = target: PCP site of the NMDA-PCP receptor complex; test: [3H]TCP binding to synaptic plasma membranes under basal conditions; set-up: species or system rat
Experimental: as §1

[5] = glycine prodrug; cited from earlier work

C[C@@H](N)C(=O)O [D-alanine]
Latency in Seconds in Passive Avoidance ([1]; 534 mg/kg I.G.): 10.9 s

N[C@@H]1CONC1=O [D-cycloserine, 4-amino-3-isoxazolidone]
% of Saline Control Latency in Passive Avoidance ([1]; 0.3 mg/kg i.p., post-shock): 160%
% of Saline Control Latency in Passive Avoidance ([1]; 0.3 mg/kg i.p., pre-retrieval): 105%
% of Saline Control Latency in Passive Avoidance ([1]; 0.3 mg/kg i.p., pre-shock): 152%
% of Saline Control Latency in Passive Avoidance ([1]; 3 mg/kg i.p., post-shock): 215%
% of Saline Control Latency in Passive Avoidance ([1]; 3 mg/kg i.p., pre-retrieval): 153%
% of Saline Control Latency in Passive Avoidance ([1]; 3 mg/kg i.p., pre-shock): 245%
Latency to enter box 24 hours after shock ([1]; 10 mg/kg i.p., drug after shock): 22.8 ± 2.4 s
Latency to enter box 24 hours after shock ([1]; 10 mg/kg i.p., drug before shock): 16.6 ± 3.0 s
% of Saline Control Latency in Passive Avoidance ([1]; 10 mg/kg i.p., post-shock): 153%
% of Saline Control Latency in Passive Avoidance ([1]; 10 mg/kg i.p., pre-retrieval): 180%
% of Saline Control Latency in Passive Avoidance ([1]; 10 mg/kg i.p., pre-shock): 138%
% of Saline Control Latency in Passive Avoidance ([1]; 20 mg/kg i.p., pre-retrieval): 100%
Latency in Seconds in Passive Avoidance ([1]; 60 mg/kg I.G.): 17.3 s
Trials to learn the reversal ([2]; following day, saline about 32 trials): about 20 trials
Trials to learn place learning task (9 correct out of 10 consecutive choices) ([2]; initial task): about 20 trials

NCC(=O)O [Glycine]
Maximum specific [3H]TCP binding [3]: 4712±779 DPM

c1csc(C2(N3CCCCC3)CCCCC2)c1 [[^3 H]TCP]
pKd [4]: 7.36

CCCCCNCC(N)=O [milacemide]
Increase of whole brain content of glycine [5]: 30%
